Assays:
[1] = biological target: T1, AKT1 (Homo sapiens, UniProt P31749); experiment: AKT1 kinase activity inhibition (KinEASE-STK S3 HTRF kit); format: biochemical
T1 construct: purchased Invitrogen P2999
Protocol: (§1) The mean inhibition of kinase and the IC50 value were measured using a NovoStar microplate reader (BMG, Germany).
(§2) The following methods were used to determine the inhibitory effect of the compound of formula I on the kinase activity of AKT1/AKT2/AKT3 in vitro. The experimental method is briefly described as follows:
(§3) The enzyme activity of AKT1 (Invitrogen, P2999), AKT2 (Invitrogen, PV3184), and AKT3 (Invitrogen, PV3185) was determined using a KinEASE-STK S3 kit (Cisbio, 62ST3PEC). Test compounds were each first subjected to 3-fold gradient dilution with DMSO from 500 μM to obtain a total of 11 concentrations. The 5× buffer in the kit was diluted to 1× buffer, and DTT (Sigma, 43816-10ML) and MgCl2 were added to make the buffer contain 1 mM DTT and 5 mM MgCl2. Compounds were each subjected to 20-fold dilution with 1× buffer for later use. […] The mixture was incubated at room temperature for 60 min, values of signals emitted at […] and 620 nm after excitation at 337 nm were measured by using an HTRF module of a multi-functional microplate detector (BMG Labtech, PHERAstar FS), and the ratio of the readings was multiplied by 10,000 to obtain a ratio value. Dose-response curves were drawn according to the concentration of the compounds and the ratio values by using Graphpad Prism software, and the IC50 values for the inhibitory activity of the compounds were calculated.

[2] = biological target: T2, AKT2 (Homo sapiens, UniProt P31751); experiment: AKT2 kinase activity inhibition (KinEASE-STK S3 HTRF kit); format: biochemical
T2 construct: purchased Invitrogen PV3184
T2 sequence (P31751 whole entry): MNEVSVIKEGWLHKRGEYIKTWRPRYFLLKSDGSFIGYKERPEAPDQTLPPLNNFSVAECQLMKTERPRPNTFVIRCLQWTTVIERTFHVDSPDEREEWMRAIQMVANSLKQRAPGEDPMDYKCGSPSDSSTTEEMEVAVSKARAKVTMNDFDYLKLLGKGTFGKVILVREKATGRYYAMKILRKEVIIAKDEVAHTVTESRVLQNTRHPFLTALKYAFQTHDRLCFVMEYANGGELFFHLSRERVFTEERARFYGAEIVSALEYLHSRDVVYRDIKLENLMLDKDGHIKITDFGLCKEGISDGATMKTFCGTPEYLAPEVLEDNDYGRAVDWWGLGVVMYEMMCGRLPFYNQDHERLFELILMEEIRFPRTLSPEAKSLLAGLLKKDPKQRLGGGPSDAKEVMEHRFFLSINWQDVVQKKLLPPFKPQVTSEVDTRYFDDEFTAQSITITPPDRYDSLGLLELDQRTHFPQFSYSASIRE
Protocol: as §1, §2, §3

[3] = biological target: T3, AKT3 (Homo sapiens, UniProt Q9Y243); experiment: AKT3 kinase activity inhibition (KinEASE-STK S3 HTRF kit); format: biochemical
T3 construct: purchased Invitrogen PV3185
T3 sequence (Q9Y243 whole entry): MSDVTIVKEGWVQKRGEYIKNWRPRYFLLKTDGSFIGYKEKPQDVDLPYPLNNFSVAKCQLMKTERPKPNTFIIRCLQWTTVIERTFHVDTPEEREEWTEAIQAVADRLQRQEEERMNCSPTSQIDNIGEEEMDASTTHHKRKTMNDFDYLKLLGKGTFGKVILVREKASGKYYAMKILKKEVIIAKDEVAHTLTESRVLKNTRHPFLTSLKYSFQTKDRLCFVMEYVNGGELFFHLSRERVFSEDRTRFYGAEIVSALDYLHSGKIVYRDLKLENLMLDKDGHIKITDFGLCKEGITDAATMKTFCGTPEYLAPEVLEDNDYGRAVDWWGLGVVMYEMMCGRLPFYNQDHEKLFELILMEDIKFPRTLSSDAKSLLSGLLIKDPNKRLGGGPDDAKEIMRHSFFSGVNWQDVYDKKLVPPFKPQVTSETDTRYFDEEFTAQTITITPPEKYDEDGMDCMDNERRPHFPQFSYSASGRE
Protocol: as §1, §2, §3

[4] = Pharmacokinetic test in nude mice, intragastric administration; format: in vivo, Balb/c nude mice; details: i.g., 50 or 100 mg/kg
Protocol: (§4) The drug concentration in the plasma of the test animals (Balb/c nude mice) at different time points after intragastric administration (i.g.) of the test compounds was determined by using an LC/MS/MS method. The pharmacokinetic performance of the compound of formula I in nude mice was studied and their pharmacokinetic profile was evaluated.
18 Balb/c nude mice, female, divided into 2 groups and purchased from Vital River Laboratory Animal Technology Co., Ltd.
A certain amount of compound was weighed out, and 99.8% (0.5% methylcellulose) was added into the compound, and then 0.2% Tween was added. The mixture was subjected to ultrasonic treatment to obtain a suspension, which was stirred for administration.
The nude mice were subjected to intragastric administration with a dose of 50 mg/kg or 100 mg/kg and an administration volume of 0.2 mL/10 g. […]
The content of the test compounds in the nude mice plasma after intragastric administration of different concentrations of the compound was determined: 20 μL of nude mouse plasma at each time point after administration was mixed with 50 μL of internal standard solution (camptothecin, 100 ng/mL) and 200 μL of acetonitrile, and the mixture was vortexed for 5 min and centrifuged for 10 min at 3700 rpm. […]

[5] = Pharmacokinetic test in rats, injection (i.v.); format: in vivo; details: SD rats, 1 mg/kg
Protocol: as §4, with “(SD rats)” for “(Balb/c nude mice)”, “injection (i.v.)” for “intragastric administration (i.g.)”, “rats” for “nude mice”
8 SD rats, half male and half female, divided into 2 groups, purchased from Vital River Laboratory Animal Technology Co., Ltd.
A certain amount of the compound was weighed out, and 5% of DMSO, 5% of Tween 80, and 90% of normal saline were added to obtain a colorless and clear solution.
The rats were subjected to administration by injection with a dose of 1 mg/kg and an administration volume of 5 mL/kg.
The test compound was administered by injection to the rats, and 0.2 mL of blood was collected from the orbit before administration and 5 min, 0.25 h, 0.5 h, 1.0 h, 2.0 h, 4.0 h, 8.0 h, 11.0 h, and 24.0 h after administration. […]
The content of the test compounds in the rat plasma after administration by injection of different concentrations of the compound was determined: 25 μL of rat plasma at each time point after administration was mixed with 50 μL of internal standard solution (camptothecin, 100 ng/mL) and 200 μL of acetonitrile, and the mixture was vortexed for 5 min and centrifuged for 10 min at 3700 rpm. […]

T1 sequence (P31749 whole entry): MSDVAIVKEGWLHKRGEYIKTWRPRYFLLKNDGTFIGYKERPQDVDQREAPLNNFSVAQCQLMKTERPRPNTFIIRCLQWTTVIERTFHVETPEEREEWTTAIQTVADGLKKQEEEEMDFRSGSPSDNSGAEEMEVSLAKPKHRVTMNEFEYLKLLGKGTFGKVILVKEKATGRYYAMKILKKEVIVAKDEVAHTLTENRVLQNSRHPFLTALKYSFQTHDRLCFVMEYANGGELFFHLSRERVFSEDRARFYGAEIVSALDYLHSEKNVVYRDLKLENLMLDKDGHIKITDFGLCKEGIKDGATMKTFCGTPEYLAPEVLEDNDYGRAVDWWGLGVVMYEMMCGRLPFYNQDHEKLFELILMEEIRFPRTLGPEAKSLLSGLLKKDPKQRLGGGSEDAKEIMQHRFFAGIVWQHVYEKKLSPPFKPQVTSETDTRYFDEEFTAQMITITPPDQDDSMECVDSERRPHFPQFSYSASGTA

In the case of `CC(C)NC[C@@H](C(=O)N1C2CCC1CN(c1ncnc3c1C(C)(C)C(=O)N3)C2)c1ccc(Cl)cc1` [Compound of formula I], the “inhibitory effect on AKT1 enzyme (conclusion)” value [1] was “good inhibitory effect”, the “inhibitory effect on AKT2 enzyme (conclusion)” value [2] was “good inhibitory effect” and the “inhibitory effect on AKT3 enzyme (conclusion)” value [3] was “good inhibitory effect”. For the same molecule, the “pharmacokinetic absorption (conclusion)” value [4] was “good pharmacokinetic absorption” and the “pharmacokinetics (conclusion)” value [5] was “good pharmacokinetics”.

— patent publication US20250145641A1, “FUSED BICYCLIC DERIVATIVE, PHARMACEUTICALLY ACCEPTABLE SALT, CRYSTAL FORM THEREOF AND PREPARATION METHOD THEREFOR” (JIANGSU HENGRUI PHARMACEUTICALS CO., LTD., priority 2021, published 2025)
